# Data taken from US20250042894A1, “PROTEIN TYROSINE PHOSPHATASE INHIBITORS AND METHODS OF USE THEREOF” (Calico Life Sciences LLC, priority 2021, published 2025).
# pEC50, pIC50: −log10 of the molar value. Read-outs that look alike come from different tables or passages of the source.
# Key:
# [1] = biological target: T1, His tagged full-length PTPN1 protein (Homo sapiens, UniProt P18031); assay: Mobility Shift Assay (MSA) for PTPN1 inhibitors; type: biochemical; settings: enzyme 0.5 nM, substrate 2 μM, 10 minutes preincubation at room temperature
# T1 construct: His; made in house
# T1 sequence (P18031 1-435): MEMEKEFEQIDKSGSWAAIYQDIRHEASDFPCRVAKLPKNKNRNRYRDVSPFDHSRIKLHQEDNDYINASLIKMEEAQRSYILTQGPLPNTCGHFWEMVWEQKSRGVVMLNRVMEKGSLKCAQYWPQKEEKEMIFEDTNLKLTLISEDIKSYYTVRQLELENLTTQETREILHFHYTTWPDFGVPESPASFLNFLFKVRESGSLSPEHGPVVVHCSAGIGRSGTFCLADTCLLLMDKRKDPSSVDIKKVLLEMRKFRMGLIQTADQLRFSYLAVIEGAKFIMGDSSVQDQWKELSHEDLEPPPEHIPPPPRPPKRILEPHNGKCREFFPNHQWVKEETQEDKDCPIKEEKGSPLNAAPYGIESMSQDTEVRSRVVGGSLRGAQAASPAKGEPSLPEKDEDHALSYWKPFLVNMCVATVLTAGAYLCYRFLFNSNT
# Procedure: Example 44: Mobility Shift Assay (MSA) Used to Determine Potency of PTPN1 Inhibitors
# Compound activity was determined using in house His tagged full-length PTPN1 protein (SEQ ID NO: 3) in an in vitro enzymatic reaction. The enzymatic assay used to determine activity is a mobility shift assay using a LabChip EZ Reader by Caliper Life Sciences. The enzymatic reaction was carried out in assay buffer (50 mM HEPES pH 7.5, 1 mM EGTA, 10 mM EDTA, 0.010% Tween® 20, and 2 mM DTT). The compounds were dispensed on a white 384 well ProxiPlate™ (PerkinElmer Cat #6008289) plate using a Labcyte Echo® liquid handler at varying concentrations (12 point, 1:3 dilution). The enzyme (at 0.5 nM) was incubated with compound for 10 minutes at room temperature. Thereafter, the substrate (phosphorylated insulin receptor probe sequence: ((OG488)-(NH—CH2—CH2—O—CH2—CH2—O—CH2—CO)-T-R-D-I—(PY)-E-T-D-Y—Y—R—K—K—NH2) (SEQ ID NO: 2) was added at 2 μM to the plates and incubated for another 10 minutes at room temperature. Finally, a quench solution (water and 4-bromo-3-(2-oxo-2-propoxyethoxy)-5-(3-{[1-(phenylmethanesulfonyl)piperidin-4-yl]amino}phenyl)thiophene-2-carboxylic acid) was added to the plates, which were then run on the EZ Reader (excitation 488 nm, emission 530 nm) to measure % conversion (the amount of phosphorylated substrate which was de-phosphorylated by PTPN1). […] The % inhibition was then used to calculate the IC50 values.
# [2] = test system: IFNγ-induced STAT1 phosphorylation (pSTAT1) in B16F10 cells; assay: B16F10 Phospho-STAT1 HTRF proximal pharmacodynamic (PD) assay; type: cell-based, murine; settings: for pEC50: B16-F10
# Procedure: Example 45: B16F10 (Murine Melanoma Cells) Phospho-STAT1 HTRF Proximal Pharmacodynamic (PD) Assay
# B16F10 cells were grown and maintained in high glucose DMEM (Gibco, Catalog #11965-092, Dun Laoghaire Co Dublin) supplemented with 10% fetal bovine serum (Gibco, Catalog #10082-139, Dun Laoghaire Co Dublin). The cells were pelleted and resuspended in high glucose DMEM without phenol red (Gibco, Catalog #11054-020, Dun Laoghaire Co Dublin), supplemented with 10% fetal bovine serum and plated in a 384 well Corning plate (product #3765, Corning, NY) at 11,000 cells per well in a volume of 20 μL. The cells were dosed with the compounds of interest using an Echo Liquid Handler (Beckman Coulter, Brea, CA) at 50 μM top dose with 3-fold dilutions down to 0.002679 μM for a 10-point dose response. The plate was incubated for 3 hours at 37° C. and subsequently treated with recombinant mouse IFNγ (R&D Systems, Catalog #485-MI, Minneapolis, MN; 100 nM final concentration) for 10 minutes at 37° C. to induce STAT1 phosphorylation followed by 3.3 μM staurosporine treatment for 1 hour at 37° C. to terminate phosphorylation. Media was then aspirated and 20 μL of 1× lysis buffer/blocking reagent (Cisbio Phospho-STAT1 kit, part #63ADK026PEH, Bedford, MA) was added. The plate was placed on a plate shaker for 30 minutes at room temperature, sealed, and stored at −80° C. until needed. To thaw, the plate was placed on shaker at room temperature until completely thawed while the antibody master mix was made (1:40 Phospho-STAT1 Eu Cryptate antibody, 1:40 Phospho-STAT1 d2 antibody, with the detection buffer; Cisbio Phospho-STAT1 kit, part #63ADK026PEH, Bedford, MA). The antibody master mix was then dispensed at 4 μL per well into a 384 ProxiPlate Plus (PerkinElmer, part #6008289, Waltham, MA) and 16 μL of lysate was added from the Corning plate to the Proxiplate using a VIAFLO 384 (INTEGRA). The plate was incubated for 3 hours at room temperature and read on an EnVision® (Perkin Elmer) plate reader with laser excitation at 335 nm and emission at 665 nm. Dotmatics Studies (Bishop's Stortford, UK) was utilized to generate all dose-response curves and calculate EC50s and are shown in Table 2.
# [3] = biological target: T2, His tagged PTPN2 (TC45) protein (Homo sapiens, UniProt P17706); assay: Mobility Shift Assay (MSA) for PTPN2 inhibitors; type: biochemical; settings: for Thiochromane x-fold>potency biochemical: PTPN2 MSA IC50 of chromane comparator over thiochromane
# T2 construct: His; made in house
# T2 sequence (P17706 1-387 isoform P17706-2): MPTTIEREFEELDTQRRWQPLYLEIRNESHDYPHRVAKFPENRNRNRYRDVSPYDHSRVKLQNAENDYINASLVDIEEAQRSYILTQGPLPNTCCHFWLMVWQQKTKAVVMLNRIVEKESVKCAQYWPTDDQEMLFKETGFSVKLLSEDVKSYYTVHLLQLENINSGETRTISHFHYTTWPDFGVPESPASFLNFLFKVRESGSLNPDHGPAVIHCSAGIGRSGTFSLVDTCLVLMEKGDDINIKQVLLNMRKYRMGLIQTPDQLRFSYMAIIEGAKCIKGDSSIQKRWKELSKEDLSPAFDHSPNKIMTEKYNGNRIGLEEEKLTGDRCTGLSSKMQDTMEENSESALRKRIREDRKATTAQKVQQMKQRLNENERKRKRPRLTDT
# Procedure: Example 43: Mobility Shift Assay (MSA) Used to Determine Potency of PTPN2 Inhibitors
# Compound activity was determined using in house His tagged PTPN2 (TC45) protein (SEQ ID NO: 1) in an in vitro enzymatic reaction. The enzymatic assay used to determine activity was a mobility shift assay using a LabChip EZ Reader by Caliper Life Sciences. The enzymatic reaction was carried out in assay buffer (50 mM HEPES pH 7.5, 1 mM EGTA, 10 mM EDTA, 0.01% Tween® 20, and 2 mM DTT). The compounds were dispensed on a white 384 well ProxiPlate™ (PerkinElmer Catalog #6008289) plate using the Labcyte Echo at varying concentrations (12 point, 1:3 dilution). The enzyme (at 0.5 nM) was incubated with compound for 10 minutes at room temperature. Thereafter, the substrate (phosphorylated insulin receptor probe sequence: ((OG488)-(NH—CH2—CH2—O—CH2—CH2—O—CH2—CO)-T-R-D-I—(PY)-E-T-D-Y—Y—R—K—K—NH2) (SEQ ID NO: 2) was added at 2 μM to the plates and incubated for another 10 minutes at room temperature. Finally, a quench solution (water and 4-bromo-3-(2-oxo-2-propoxyethoxy)-5-(3-{[1-(phenylmethanesulfonyl)piperidin-4-yl]amino}phenyl)thiophene-2-carboxylic acid) was added to the plates, which were then run on the EZ Reader (excitation 488 nm, emission 530 nm) to measure % conversion (the amount of phosphorylated substrate which was de-phosphorylated by PTPN2). […] The % inhibition was then used to calculate the IC50 values.
# [4] = Table 2, 3 hours compound, then mouse IFNγ 100 nM 10 minutes, top dose 50 μM, read-out: B16F10 IFNγ Induced pSTAT1 EC50
# [5] = enzyme 0.5 nM, substrate 2 μM, 10 minutes preincubation at room temperature
# [6] = Mus musculus, Table 3, B16F10 cells, IFNγ-induced, thiochromanes (X = S) and chromane comparators (X = O), read-out: pSTAT1 EC50
# [7] = Table 3, thiochromanes (X = S) and chromane comparators (X = O)
SMILES,pIC50 [1],"pEC50 [2, 6]",other results
"CCC(C)(C)CCN[C@@H]1CSc2cc(O)c(N3CC(=O)NS3(=O)=O)c(F)c2C1 [Compound 124, 5-{(3S)-3-[(3,3-dimethylpentyl)amino]-5-fluoro-7-hydroxy-3,4-dihydro-2H-1-benzothiopyran-6-yl}-1λ^6,2,5-thiadiazolidine-1,1,3-trione]",7.00 to 8.00,,"pEC50 [2, 4]: 5.16; pIC50 [3, 5]: > 8.00"
"O=C1CN(c2c(O)cc3c(c2F)C[C@H](NCCCOCC(F)F)CS3)S(=O)(=O)N1 [Compound 137, 5-[(3S)-3-{[3-(2,2-difluoroethoxy)propyl]amino}-5-fluoro-7-hydroxy-3,4-dihydro-2H-1-benzothiopyran-6-yl]-1λ^6,2,5-thiadiazolidine-1,1,3-trione]",7.00 to 8.00,< 4.30,"pEC50 [2, 4]: < 4.30; Thiochromane x-fold>potency cellular ([2]; Table 3, pSTAT1 EC50 of chromane comparator over thiochromane): ~1.0; Thiochromane x-fold>potency biochemical ([3]; Table 3): 1.1; pIC50 [3, 7]: 7.68; pIC50 [3, 5]: 7.00 to 8.00"
"O=C1CN(c2c(O)cc3c(c2F)C[C@H](NCCC2CCCCC2)CS3)S(=O)(=O)N1 [Compound 118, 5-{(3S)-3-[(2-cyclohexylethyl)amino]-5-fluoro-7-hydroxy-3,4-dihydro-2H-1-benzothiopyran-6-yl}-1λ^6,2,5-thiadiazolidine-1,1,3-trione]",> 8.00,,"pEC50 [2, 4]: 5.37; pIC50 [3, 5]: > 8.00"
"O=C1CN(c2c(O)cc3c(c2F)C[C@H](NCC2CC2(F)F)CS3)S(=O)(=O)N1 (stereo partly drawn) [Compound 126, 5-[(3S)-3-{[(2,2-difluorocyclopropyl)methyl]amino}-5-fluoro-7-hydroxy-3,4-dihydro-2H-1-benzothiopyran-6-yl]-1λ^6,2,5-thiadiazolidine-1,1,3-trione]",7.00 to 8.00,,"pEC50 [2, 4]: 4.59; pIC50 [3, 5]: 7.00 to 8.00"
"O=C1CN(c2c(O)cc3c(c2F)CC(NCCC2CCOC2)CO3)S(=O)(=O)N1 (stereo not shown) [Compound C-5, reference compound]",,4.65,
"CC(C)(C)OC(=O)N[C@@H]1CSc2cc(O)c(N3CC(=O)NS3(=O)=O)c(F)c2C1 [Compound 101, tert-butyl [(3S)-5-fluoro-7-hydroxy-6-(1,1,4-trioxo-1λ^6,2,5-thiadiazolidin-2-yl)-3,4-dihydro-2H-1-benzothiopyran-3-yl]carbamate]",< 7.00,,
"O=C1CN(c2c(O)cc3c(c2F)CC(NCC2CCC(C(F)(F)F)CC2)CO3)S(=O)(=O)N1 (stereo not shown) [Compound C-11, reference compound]",,< 4.30,
"O=C1CN(c2c(O)cc3c(c2F)CC(NCC2(CF)CC2)CO3)S(=O)(=O)N1 (stereo not shown) [Compound C-6, reference compound]",,< 4.30,
"N[C@@H]1COc2cc(O)c(N3CC(=O)NS3(=O)=O)c(F)c2C1 [Compound C-2, reference compound]",,5.24,"pIC50 [3, 7]: 7.28"
"CC1=C(CCNC2COc3cc(O)c(N4CC(=O)NS4(=O)=O)c(F)c3C2)C(C)(C)CCC1 (stereo not shown) [Compound C-12, reference compound]",,< 4.30,
"O=C1CN(c2c(O)cc3c(c2F)CC(NCC2C4CCCC42)CO3)S(=O)(=O)N1 (stereo not shown) [Compound C-10, reference compound]",,< 4.30,
"O=C1CN(c2c(O)cc3c(c2F)CC(NCCCc2ccccc2)CO3)S(=O)(=O)N1 (stereo not shown) [Compound C-8, reference compound]",,< 4.30,
"CC(C)CCN[C@@H]1COc2cc(O)c(N3CC(=O)NS3(=O)=O)c(F)c2C1 [Compound C-3, reference compound]",,5.16,"pIC50 [3, 7]: 7.82"
"O=C1CN(c2c(O)cc3c(c2F)CC(NCC2CC(c4ccccc4)C2)CO3)S(=O)(=O)N1 (stereo not shown) [Compound C-7, reference compound]",,< 4.30,
"O=C1CN(c2c(O)cc3c(c2F)CC(NCCC2CCOCC2)CO3)S(=O)(=O)N1 (stereo not shown) [Compound C-4, reference compound]",,4.49,
"CC(C)(C)OC(=O)N1CCC(CNC2COc3cc(O)c(N4CC(=O)NS4(=O)=O)c(F)c3C2)CC1 (stereo not shown) [Compound C-13, reference compound]",,< 4.30,
"N[C@@H]1CSc2cc(O)c(N3CC(=O)NS3(=O)=O)c(F)c2C1 [Compound 102, 5-[(3S)-3-amino-5-fluoro-7-hydroxy-3,4-dihydro-2H-1-benzothiopyran-6-yl]-1λ^6,2,5-thiadiazolidine-1,1,3-trione]",< 7.00,,"Thiochromane x-fold>potency biochemical ([3]; Table 3): 1.7; pIC50 [3, 7]: 7.51; pIC50 [3, 5]: 7.00 to 8.00"
